# Source: ChEMBL document CHEMBL1201862, “PubChem BioAssay data set” (2004)
#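 Values below derive from 48-hour exposures of cells grown in 96-well plates, with endpoints linearly interpolated between the two concentrations bracketing the appropriate inhibition level. GI50: concentration for 50% inhibition of growth.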 Active and inactive are the calls of the source. No stated cut-off is given here; in the data, active = GI50 up to about 1.1 µM and inactive = higher.
# How the values were obtained:
# Experiment in all cases: NCI anticancer screen, dose series, 48 h
# A498 = system: A498
# A549 = system: A549
# ACHN = system: ACHN
# CCRF-CEM = system: CCRF-CEM
# COLO 205 = system: COLO 205
# DLD-1 = system: DLD-1
# DMS-114 = system: DMS-114
# DMS-273 = system: DMS-273
# EKVX = system: EKVX
# HCC 2998 = system: HCC 2998
# HCT-116 = system: HCT-116
# HCT-15 = system: HCT-15
# HL-60 = system: HL-60
# HOP-18 = system: HOP-18
# HOP-62 = system: HOP-62
# HOP-92 = system: HOP-92
# HT-29 = system: HT-29
# IGROV-1 = system: IGROV-1
# K562 = system: K562
# KM-20L2 = system: KM-20L2
# KM12 = system: KM12
# LOX IMVI = system: LOX IMVI
# M14 = system: M14
# MOLT-4 = system: MOLT-4
# NCI-H226 = system: NCI-H226
# NCI-H23 = system: NCI-H23
# NCI-H460 = system: NCI-H460
# NCI-H522 = system: NCI-H522
# OVCAR-3 = system: OVCAR-3
# OVCAR-4 = system: OVCAR-4
# OVCAR-5 = system: OVCAR-5
# OVCAR-8 = system: OVCAR-8
# RPMI-8226 = system: RPMI-8226
# RXF 393 = system: RXF 393
# SF-295 = system: SF-295
# SF-539 = system: SF-539
# SK-MEL-28 = system: SK-MEL-28
# SK-MEL-2 = system: SK-MEL-2
# SK-MEL-5 = system: SK-MEL-5
# SK-OV-3 = system: SK-OV-3
# SN12C = system: SN12C
# SNB-19 = system: SNB-19
# SNB-75 = system: SNB-75
# SR = system: SR
# SW-620 = system: SW-620
# TK-10 = system: TK-10
# U-251 = system: U-251
# UACC-257 = system: UACC-257
# UACC-62 = system: UACC-62
# UO-31 = system: UO-31
# XF498 = system: XF498
# LXFL 529 = system: LXFL 529
# Malme-3M = system: Malme-3M
# SF-268 = system: SF-268
# 786-0 = system: 786-0
# CAKI-1 = system: CAKI-1
# M19-MEL = system: M19-MEL
# SNB-78 = system: SNB-78
structure (smiles),measurement,setting,value
C/C=C/CC(S(=O)(=O)c1ccccc1)S(=O)(=O)c1ccccc1,GI50,A498,> 100 µM (inactive)
same,GI50,A549,> 100 µM (inactive)
same,GI50,ACHN,> 100 µM (inactive)
same,GI50,CCRF-CEM,87.1 µM (inactive)
same,GI50,COLO 205,> 100 µM (inactive)
same,GI50,DLD-1,> 100 µM (inactive)
same,GI50,DMS-114,14 µM (inactive)
same,GI50,DMS-273,> 100 µM (inactive)
same,GI50,EKVX,> 100 µM (inactive)
same,GI50,HCC 2998,> 100 µM (inactive)
same,GI50,HCT-116,> 100 µM (inactive)
same,GI50,HCT-15,60 µM
same,GI50,HL-60,> 100 µM (inactive)
same,GI50,HOP-18,> 100 µM (inactive)
same,GI50,HOP-62,85.5 µM (inactive)
same,GI50,HOP-92,> 100 µM (inactive)
same,GI50,HT-29,> 100 µM (inactive)
same,GI50,IGROV-1,> 100 µM (inactive)
same,GI50,K562,> 100 µM (inactive)
same,GI50,KM-20L2,> 100 µM (inactive)
same,GI50,KM12,> 100 µM (inactive)
same,GI50,LOX IMVI,> 100 µM (inactive)
same,GI50,M14,> 100 µM (inactive)
same,GI50,MOLT-4,> 100 µM (inactive)
same,GI50,NCI-H226,> 100 µM (inactive)
same,GI50,NCI-H23,> 100 µM (inactive)
same,GI50,NCI-H460,> 100 µM (inactive)
same,GI50,NCI-H522,12 µM (inactive)
same,GI50,OVCAR-3,> 100 µM (inactive)
same,GI50,OVCAR-4,> 100 µM (inactive)
same,GI50,OVCAR-5,> 100 µM (inactive)
same,GI50,OVCAR-8,> 100 µM (inactive)
same,GI50,RPMI-8226,95.3 µM (inactive)
same,GI50,RXF 393,> 100 µM (inactive)
same,GI50,SF-295,> 100 µM (inactive)
same,GI50,SF-539,> 100 µM (inactive)
same,GI50,SK-MEL-28,> 100 µM (inactive)
same,GI50,SK-MEL-2,> 100 µM (inactive)
same,GI50,SK-MEL-5,> 100 µM (inactive)
same,GI50,SK-OV-3,> 100 µM (inactive)
same,GI50,SN12C,> 100 µM (inactive)
same,GI50,SNB-19,> 100 µM (inactive)
same,GI50,SNB-75,32.7 µM (inactive)
same,GI50,SR,> 100 µM (inactive)
same,GI50,SW-620,> 100 µM (inactive)
same,GI50,TK-10,> 100 µM (inactive)
same,GI50,U-251,33.3 µM (inactive)
same,GI50,UACC-257,> 100 µM (inactive)
same,GI50,UACC-62,36.1 µM (inactive)
same,GI50,UO-31,> 100 µM (inactive)
same,GI50,XF498,> 100 µM (inactive)
C/C(=N\NC(=O)c1ccccc1O)c1cccc(/C(C)=N/NC(=O)c2ccccc2O)n1.[Cl-].[Cl-].[Zn+2],GI50,A549,10.8 µM (inactive)
same,GI50,ACHN,2.17 µM (inactive)
same,GI50,DMS-114,2.97 µM (inactive)
same,GI50,EKVX,19.6 µM (inactive)
same,GI50,HCC 2998,2.01 µM (inactive)
same,GI50,HCT-15,7.35 µM
same,GI50,HOP-92,10.6 µM (inactive)
same,GI50,KM12,6.25 µM (inactive)
same,GI50,LOX IMVI,1.37 µM (inactive)
same,GI50,LXFL 529,1.34 µM (inactive)
same,GI50,M14,7.96 µM (inactive)
same,GI50,MOLT-4,1.59 µM (inactive)
same,GI50,Malme-3M,10.8 µM (inactive)
same,GI50,OVCAR-8,2.18 µM (inactive)
same,GI50,RXF 393,8.05 µM (inactive)
same,GI50,SF-268,2.11 µM (inactive)
same,GI50,SF-295,9.98 µM (inactive)
same,GI50,SK-MEL-2,15.2 µM (inactive)
same,GI50,SK-MEL-5,10.4 µM (inactive)
same,GI50,SK-OV-3,6.15 µM (inactive)
same,GI50,SNB-75,17.9 µM (inactive)
same,GI50,SR,1.44 µM (inactive)
same,GI50,SW-620,5.85 µM (inactive)
same,GI50,TK-10,10.2 µM (inactive)
same,GI50,UACC-62,2.11 µM (inactive)
same,GI50,XF498,21.2 µM (inactive)
CCCCCCN(CCCCCC)C(=O)Cc1c2n(c3ccccc13)Cc1ccccc1-2,GI50,786-0,85.1 µM (inactive)
same,GI50,A549,52.8 µM (inactive)
same,GI50,ACHN,50.2 µM (inactive)
same,GI50,CAKI-1,> 100 µM (inactive)
same,GI50,CCRF-CEM,28.1 µM (inactive)
same,GI50,COLO 205,58.5 µM (inactive)
same,GI50,DLD-1,33.7 µM (inactive)
same,GI50,DMS-114,28.6 µM (inactive)
same,GI50,DMS-273,36.9 µM (inactive)
same,GI50,EKVX,69.8 µM (inactive)
same,GI50,HCC 2998,53.7 µM (inactive)
same,GI50,HCT-116,29.6 µM (inactive)
same,GI50,HCT-15,37.4 µM
same,GI50,HL-60,19.8 µM (inactive)
same,GI50,HOP-18,> 100 µM (inactive)
same,GI50,HOP-62,86.7 µM (inactive)
same,GI50,HOP-92,10.6 µM (inactive)
same,GI50,HT-29,62.8 µM (inactive)
same,GI50,K562,33.4 µM (inactive)
same,GI50,KM-20L2,> 100 µM (inactive)
same,GI50,KM12,42.1 µM (inactive)
same,GI50,LOX IMVI,69.8 µM (inactive)
same,GI50,LXFL 529,37.4 µM (inactive)
same,GI50,M14,44.8 µM (inactive)
same,GI50,M19-MEL,60.3 µM (inactive)
same,GI50,MOLT-4,33.3 µM (inactive)
same,GI50,Malme-3M,88.9 µM (inactive)
same,GI50,NCI-H226,> 100 µM (inactive)
same,GI50,NCI-H23,49.8 µM (inactive)
same,GI50,NCI-H460,63.1 µM (inactive)
same,GI50,NCI-H522,32.5 µM (inactive)
same,GI50,OVCAR-3,43.4 µM (inactive)
same,GI50,OVCAR-4,79.8 µM (inactive)
same,GI50,OVCAR-8,44.8 µM (inactive)
same,GI50,RPMI-8226,28.8 µM (inactive)
same,GI50,RXF 393,26.5 µM (inactive)
same,GI50,SF-268,99.1 µM (inactive)
same,GI50,SF-295,56.8 µM (inactive)
same,GI50,SF-539,> 100 µM (inactive)
same,GI50,SK-MEL-28,> 100 µM (inactive)
same,GI50,SK-MEL-2,49.3 µM (inactive)
same,GI50,SK-MEL-5,41.4 µM (inactive)
same,GI50,SK-OV-3,> 100 µM (inactive)
same,GI50,SN12C,52.5 µM (inactive)
same,GI50,SNB-19,80.7 µM (inactive)
same,GI50,SNB-75,> 100 µM (inactive)
same,GI50,SNB-78,71.8 µM (inactive)
same,GI50,SR,14.9 µM (inactive)
same,GI50,SW-620,49.5 µM (inactive)
same,GI50,TK-10,51.8 µM (inactive)
same,GI50,U-251,34.4 µM (inactive)
same,GI50,UACC-257,49.7 µM (inactive)
same,GI50,UACC-62,> 100 µM (inactive)
same,GI50,UO-31,44.6 µM (inactive)
